How the values were obtained:
MRGPRX2 = molecular target: T1, MRGPRX2 (Homo sapiens, UniProt Q96LB1); test: Ca2+ mobilization assay, LN229 cells overexpressing MRGPRX2; format: cell-based; design: expressed in transfected cells; host or cells: LN229 human glioblastoma cells; plasmid pLXSN-MRGPRX2 (Addgene #213960); conditions: for Ki: versus CST-14 (EC80 800 nM, EC50 452 nM), Cheng-Prusoff, read-out: Ca2+ assay Ki ± SEM
T1 sequence (Q96LB1 1-330): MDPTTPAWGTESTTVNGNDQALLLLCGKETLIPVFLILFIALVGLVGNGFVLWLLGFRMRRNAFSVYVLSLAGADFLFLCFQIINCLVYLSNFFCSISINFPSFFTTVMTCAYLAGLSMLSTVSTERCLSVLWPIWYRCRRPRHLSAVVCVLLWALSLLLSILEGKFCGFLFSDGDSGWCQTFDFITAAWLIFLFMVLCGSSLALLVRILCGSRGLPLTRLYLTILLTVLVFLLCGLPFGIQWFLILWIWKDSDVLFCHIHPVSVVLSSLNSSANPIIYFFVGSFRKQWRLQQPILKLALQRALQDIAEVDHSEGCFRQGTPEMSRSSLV
Description: Glioblastoma LN229-MRGPRX2 stably expressing MRGPRX2 (produced by retroviral transfection) were seeded into black sterile 96-well microplates at a density of 5 × 10^4 cells/well in 200 µL of DMEM/F12-Nut Mix medium, supplemented with 10% FCS, 100 U/mL of penicillin 100 µg/mL of streptomycin, and 200 µg/mL of G418 and incubated for 18–22 h.
The next day Fluo-4 AM Solution (1 mM) (Thermo Fisher Scientific) was prepared and used to prepare cell loading dye solution consisting of 4970 µL of Hank’s Buffered Saline Solution (HBSS) buffer, 15 µL of 20% Pluronic-F and 15 µL of 1 mM Fluo-4 AM. Next, the cell medium was removed and exchanged for 40 µL of dye solution per well (final concentration of Fluo-4 AM: 3 µM). The cell plate was incubated for 60 min in the dark at room temperature, then the dye solution was removed and replaced by 189 µL HBSS. Subsequently, 1 µL of antagonist diluted in DMSO was added and incubated for 30 min at room temperature and in the dark (final DMSO concentration 0.5%, v/v). CST-14 or another agonist prepared in HBSS as well as carbachol (final concentration 100 µM) were pipetted (10 µL) using a FlexStation® 3 Multi-Mode Microplate Reader. For the determination of baseline fluorescence, HBSS buffer containing solvent of the investigated compound was used. Fluorescence was measured for 120 intervals of 1 s (number of flashes: 10) at a wavelength of 525 nm (excitation 485 nm) using the SoftMax® Pro5.1 Microplate Data Acquisition & Analysis Software. Three independent experiments were performed in duplicates. Measurements are provided in relative fluorescence units and normalized to the maximal effect of CST-14.

mouse MRGPRB2 = molecular target: T2, mouse MRGPRB2 (Mus musculus, UniProt Q3KNA1); test: Ca2+ assay, 1321N1 astrocytoma cells expressing MRGPRB2; format: cell-based
T2 construct: expressed in transfected cells; host or cells: 1321N1 astrocytoma cells; plasmid pLVX-IRES-MRGPRB2-mCherry (Addgene #213961)
T2 sequence (Q3KNA1 1-338): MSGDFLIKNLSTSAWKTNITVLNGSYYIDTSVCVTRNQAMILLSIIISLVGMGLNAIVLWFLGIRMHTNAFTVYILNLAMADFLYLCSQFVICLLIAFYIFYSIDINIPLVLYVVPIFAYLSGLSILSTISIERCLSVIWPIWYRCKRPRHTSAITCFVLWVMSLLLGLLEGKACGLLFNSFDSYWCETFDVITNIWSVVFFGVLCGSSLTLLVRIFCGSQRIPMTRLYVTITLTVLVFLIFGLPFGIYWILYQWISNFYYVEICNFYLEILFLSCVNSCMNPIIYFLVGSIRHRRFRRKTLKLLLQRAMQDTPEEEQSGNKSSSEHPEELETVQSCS
Description: Therefore, we investigated whether the new MRGPRX2 antagonists could also block MRGPRB2. To this end, we used recombinant 1321N1 astrocytoma cells that stably expressed MRGPRB2, employing Ca^2+ assays, and CST-14 as MRGPRX2/MRGPRB2 agonist (EC80 value of 2000 nM).[31]
For MRGPRB2, the pKi values of the compounds were determined using 1321N1 astrocytoma cells recombinantly expressing MRGPRB2 using Ca^2+ assays versus the MRGPRX2/MRGPRB2 agonist CST-14 (EC80 value, 2000 nM). For MRGPRX2, pKi values were determined using Ca^2+ assays performed in LN229 cells recombinantly overexpressing MRGPRX2 versus the agonist CST-14 (EC80 value, 800 nM). b Concentration-response curve of PSB-172656 in Ca^2+ assays using 1321N1 astrocytoma cells expressing MRGPRB2 versus CST-14 (EC80 value, 2000 nM), Ki value 0.302 ± 0.039 nM. Data are generated from 3 biological replicates, determined in duplicates. c A representative trace showing the effect of C48/80 (30 µg/mL) on a mouse tracheal ring in isometric force measurements using a wire-myograph system. d The contraction response of mouse trachea to C48/80 (30 µg/mL) was normalized to the contraction caused by methacholine (10 µM), a muscarinic receptors agonist. […]

| agonistic activity in Ca2+ assays (MRGPRX2) | Ki (MRGPRX2) | fold higher potency compared to the 8-monofluorinated derivative (30) (MRGPRX2) | fold increase in potency compared to 10 (MRGPRX2) | fold increase in potency compared to hit compound 1 (MRGPRX2) | MRGPRX2 antagonistic potency in Ca2+ assay, in words (MRGPRX2; versus CST-14) | fold less potent at MRGPRB2 than at human MRGPRX2 (mouse MRGPRB2; Ca2+ assays) | Ki (mouse MRGPRB2; versus CST-14 (EC80 2000 nM)) | Structure (SMILES) |
| --- | --- | --- | --- | --- | --- | --- | --- | --- |
| did not show any agonistic activity | 246000 ± 125000 pM | – | – | – | – | – | – | CCCc1c(C)[nH]c2nc3ccccc3n2c1=O [Compound 1, 2-methyl-3-propylbenzo[4,5]imidazo[1,2-a]pyrimidin-4(1H)-one] |
| – | 142 pM | about 4 fold | 7 fold | 1870 fold | subnanomolar potencies | 3 fold | 302 pM | CCc1c(C(C)C)[nH]c2nc3cc(F)c(F)cc3n2c1=O [Compound 24, 3-ethyl-7,8-difluoro-2-isopropylbenzo[4,5]imidazo [1,2-a] pyrimidin-4(1H)-one] |

— publication PMC12010006, “Subnanomolar MAS-related G protein-coupled receptor-X2/B2 antagonists with efficacy in human mast cells and disease models” (Signal Transduction and Targeted Therapy, 2025)
